Assay results: patent publication US7781428B2 (Pfizer Inc., priority 2006, dated 2010)
pIC50: −log10 of the molar value.

The compounds below were run against T1, mineralocorticoid receptor (MR) (Homo sapiens, UniProt P08235) (assay: Cell-based Gal4 response element-controlled luciferase reporter assay (MR antagonism)). Settings: Huh7 human liver cells transfected with Gal4 DBD-MR LBD fusion and luciferase reporter; block of agonist-induced activation; overnight incubation.
T1 construct: expressed in transfected cells; host or cells: Huh7 (human liver cells)
T1 sequence (P08235 726-964 limits assumed): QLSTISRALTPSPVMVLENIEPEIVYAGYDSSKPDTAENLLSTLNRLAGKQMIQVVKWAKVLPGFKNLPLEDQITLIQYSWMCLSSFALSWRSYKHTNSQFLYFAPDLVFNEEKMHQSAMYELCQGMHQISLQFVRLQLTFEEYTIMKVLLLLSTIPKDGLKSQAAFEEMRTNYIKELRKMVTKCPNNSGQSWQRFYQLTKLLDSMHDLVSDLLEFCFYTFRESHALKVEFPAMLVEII
Procedure, shortened: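 Transiently transfected Huh7 cells were treated with agonist at 70-80% of full activation plus compounds for 18-20 h in medium with charcoal/dextran-stripped serum. Luciferase read-out was normalized to β-galactosidase (ONPG, OD420); IC50 came from curve fitting.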

Row | pIC50 | Structure (SMILES)
1 | 7.89 | COc1cc(N2N=C3c4ccc(C(=O)O)cc4CC[C@@H]3[C@@H]2C2CCCC2)ccc1C#N [Example 26, (3S,3aR)-2-(4-cyano-3-methoxyphenyl)-3-cyclopentyl-3,3a,4,5-tetrahydro-2H-benzo[g]indazole-7-carboxylic acid]
2 | < 6.00 | N#Cc1ccc(N2N=C3c4ccc(C(=O)O)cc4CCC3C2C2CCOCC2)cc1 (racemic) [Example 37, 2-(4-cyanophenyl)-3-(tetrahydro-2H-pyran-4-yl)-3,3a,4,5-tetrahydro-2H-benzo[g]indazole-7-carboxylic acid]
3 | < 6.00 | N#Cc1ccc(N2N=C3c4ccc(C(=O)O)cc4OC[C@H]3[C@H]2c2ccc(F)cc2)cc1 [Example 60, (3S,3aS)-2-(4-cyanophenyl)-3-(4-fluorophenyl)-2,3,3a,4-tetrahydrochromeno[4,3-c]pyrazole-7-carboxylic acid]
4 | 7.64 | C[S+]([O-])CCNC(=O)c1ccc2c(c1)CC[C@H]1C2=NN(c2ccc(C#N)c(Cl)c2)[C@H]1c1ccc(F)cc1 (mixture of isomers) [Example 101, (±)-(3RS,3aRS)-2-(3-chloro-4-cyanophenyl)-3-(4-fluorophenyl)-N-[2-(methylsulfinyl)ethyl]-3,3a,4,5-tetrahydro-2H-benzo[g]indazole-7-carboxamide]
5 | < 6.00 | N#Cc1ccc(N2N=C3c4ccc(C(=O)NCCOCC(=O)O)cc4CC[C@@H]3[C@@H]2c2ccc(F)cc2)cc1Cl (racemic) [Example 109, (±)-2-(2-((3RS,3aRS)-2-(3-chloro-4-cyanophenyl)-3-(4-fluorophenyl)-3,3a,4,5-tetrahydro-2H-benzo[g]indazole-7-carboxamido)ethoxy)acetic acid]
6 | 6.23 | CC(C)C1C2COc3cc(C(=O)O)ccc3C2=NN1c1ccc(C#N)c(Cl)c1 (racemic) [Example 74, 2-(3-chloro-4-cyanophenyl)-3-isopropyl-2,3,3a,4-tetrahydrochromeno[4,3-c]pyrazole-7-carboxylic acid]
7 | 6.01 | N#Cc1ccc(N2N=C3c4ccc(C(=O)O)cc4OCC3C2c2ccc(F)cc2)cc1C(F)(F)F (racemic) [Example 54, 2-(4-cyano-3-(trifluoromethyl)phenyl)-3-(4-fluorophenyl)-2,3,3a,4-tetrahydrochromeno[4,3-c]pyrazole-7-carboxylic acid]
8 | 7.42 | N#Cc1ccc(N2N=C3c4ccc(C(=O)O)cc4CC[C@@H]3[C@@H]2C2CCCC2)cc1 [Example 19, (3S,3aR)-2-(4-cyanophenyl)-3-cyclopentyl-3,3a,4,5-tetrahydro-2H-benzo[g]indazole-7-carboxylic acid]
9 | 7.92 | CS(=O)(=O)CCNC(=O)c1ccc2c(c1)CCC1C2=NN(c2ccc(C#N)c(Cl)c2)C1c1ccc(F)cc1 (racemic) [Example 97, (±)-(3RS,3aRS)-2-(3-chloro-4-cyanophenyl)-3-(4-fluorophenyl)-N-(2-(methylsulfonyl)ethyl)-3,3a,4,5-tetrahydro-2H-benzo[g]indazole-7-carboxamide]
10 | 7.41 | Cc1cc(N2N=C3c4ccc(C(=O)O)cc4OCC3C2C2CCCC2)ccc1C#N (racemic) [Example 61, 2-(4-cyano-3-methylphenyl)-3-cyclopentyl-2,3,3a,4-tetrahydrochromeno[4,3-c]pyrazole-7-carboxylic acid]
11 | 6.99 | Cc1ncc(C2C3CCc4cc(C(=O)O)ccc4C3=NN2c2ccc(C#N)c(Cl)c2)s1 (racemic) [Example 49, 2-(3-chloro-4-cyanophenyl)-3-(2-methyl-1,3-thiazol-5-yl)-3,3a,4,5-tetrahydro-2H-benzo[g]indazole-7-carboxylic acid]
12 | 7.92 | CS(=O)(=O)CCNC(=O)c1ccc2c(c1)CCC1C2=NN(c2ccc(C#N)c(Cl)c2)C1c1ccc(F)cc1 (racemic) [Example 96, 2-(3-chloro-4-cyanophenyl)-3-(4-fluorophenyl)-N-(2-(methylsulfonyl)ethyl)-3,3a,4,5-tetrahydro-2H-benzo[g]indazole-7-carboxamide]
13 | 6.35 | COC(=O)c1ccc2c(c1)CCC1C2=NN(c2ccc(C#N)c(OCc3ccccc3)c2)C1C1CCCC1 (racemic) [Example 30, methyl 2-(3-(benzyloxy)-4-cyanophenyl)-3-cyclopentyl-3,3a,4,5-tetrahydro-2H-benzo[g]indazole-7-carboxylate]
14 | 8.40 | Cc1cc(N2N=C3c4ccc(C(=O)O)cc4CCC3C2C2CCCC2)ccc1C#N (racemic) [Example 21, 2-(4-cyano-3-methylphenyl)-3-cyclopentyl-3,3a,4,5-tetrahydro-2H-benzo[g]indazole-7-carboxylic acid]
15 | 7.44 | N#Cc1ccc(N2N=C3c4ccc(O)cc4CC[C@@H]3[C@@H]2c2ccc(F)cc2)cc1Cl [Example 87, 2-chloro-4-((3R,3aR)-3-(4-fluorophenyl)-7-hydroxy-3,3a,4,5-tetrahydrobenzo[g]indazol-2-yl)benzonitrile]
16 | 7.16 | N#Cc1ccc(N2N=C3c4ccc(C(=O)O)cc4CCC3C2c2ccoc2)cc1Cl (racemic) [Example 46, 2-(3-chloro-4-cyanophenyl)-3-(3-furyl)-3,3a,4,5-tetrahydro-2H-benzo[g]indazole-7-carboxylic acid]
17 | 6.69 | N#Cc1ccc(N2N=C3c4ccc(C(=O)O)cc4OC[C@@H]3[C@@H]2C2CCCC2)cc1 [Example 71, (3S,3aR)-2-(4-cyanophenyl)-3-cyclopentyl-2,3,3a,4-tetrahydrochromeno[4,3-c]pyrazole-7-carboxylic acid]
18 | 6.95 | N#Cc1ccc(N2N=C3c4ccc(C(=O)NCCCCCC(=O)O)cc4CC[C@@H]3[C@@H]2c2ccc(F)cc2)cc1Cl (racemic) [Example 103, (±)-6-((3RS,3aRS)-2-(3-chloro-4-cyanophenyl)-3-(4-fluorophenyl)-3,3a,4,5-tetrahydro-2H-benzo[g]indazole-7-carboxamido)hexanoic acid]
19 | 5.16 | N#Cc1ccc(N2N=C3c4ccc(CC(=O)O)cc4OCC3C2c2ccc(F)cc2)cc1 (racemic) [Example 79, (±)-(3RS,3aRS)-[2-(4-cyanophenyl)-3-(4-fluorophenyl)-2,3,3a,4-tetrahydrochromeno[4,3-c]pyrazol-7-yl]acetic acid]
20 | 6.51 | Cc1cc(N2N=C3c4ccc(C(=O)O)cc4OCC3C2c2ccc(F)cc2)ccc1C#N (racemic) [Example 53, (±)-(3SR,3aSR)-2-(4-cyano-3-methylphenyl)-3-(4-fluorophenyl)-2,3,3a,4-tetrahydrochromeno[4,3-c]pyrazole-7-carboxylic acid]
21 | < 6.00 | N#Cc1ccc(N2N=C3c4ccc(C(=O)O)cc4CC[C@H]3[C@H]2c2ccco2)cc1Cl [Example 45, (3S,3aS)-2-(3-chloro-4-cyanophenyl)-3-(2-furyl)-3,3a,4,5-tetrahydro-2H-benzo[g]indazole-7-carboxylic acid]
22 | < 6.30 | N#Cc1ccc(N2N=C3c4ccc(C(=O)O)cc4CC[C@@H]3[C@@H]2C2CCCC2)cc1O (racemic) [Example 33]
23 | 6.90 | N#Cc1ccc(N2N=C3c4ccc(C(=O)O)cc4CCC3C2C2CCOCC2)cc1Cl (racemic) [Example 36, 2-(3-chloro-4-cyanophenyl)-3-(tetrahydro-2H-pyran-4-yl)-3,3a,4,5-tetrahydro-2H-benzo[g]indazole-7-carboxylic acid]
24 | 6.51 | N#Cc1ccc(N2N=C3c4ccc(C(=O)NCCCC(=O)O)cc4CC[C@@H]3[C@@H]2c2ccc(F)cc2)cc1Cl (racemic) [Example 106, (±)-4-((3RS,3aRS)-2-(3-chloro-4-cyanophenyl)-3-(4-fluorophenyl)-3,3a,4,5-tetrahydro-2H-benzo[g]indazole-7-carboxamido)butanoic acid]
25 | 7.24 | N#Cc1ccc(N2N=C3c4ccc(C(=O)NCCN5CCCC5)cc4CC[C@@H]3[C@@H]2c2ccc(F)cc2)cc1Cl (racemic) [Example 111, (±)-(3RS,3aRS)-2-(3-chloro-4-cyanophenyl)-3-(4-fluorophenyl)-N-(2-(pyrrolidin-1-yl)ethyl)-3,3a,4,5-tetrahydro-2H-benzo[g] indazole-7-carboxamide]
26 | 6.82 | COCc1cc(N2N=C3c4ccc(C(=O)O)cc4CCC3C2C2CCCC2)ccc1C#N (racemic) [Example 28, 2-(4-cyano-3-(methoxymethyl)phenyl)-3-cyclopentyl-3,3a,4,5-tetrahydro-2H-benzo[g] indazole-7-carboxylic acid]
27 | < 5.00 | N#Cc1ccc(N2N=C3c4ccc(C(=O)O)cc4CC[C@H]3[C@H]2c2ccc(F)cc2)cc1 [Example 12, (3S,3aS)-2-(4-cyanophenyl)-3-(4-fluorophenyl)-3,3a,4,5-tetrahydro-2H-benzo[g]indazole-7-carboxylic acid]
28 | 7.42 | N#Cc1ccc(N2N=C3c4ccc(C(=O)O)cc4OC[C@@H]3[C@@H]2C2CCCC2)cc1Cl [Example 65, (3S,3aR)-2-(3-chloro-4-cyanophenyl)-3-cyclopentyl-2,3,3a,4-tetrahydrochromeno[4,3-c]pyrazole-7-carboxylic acid]

Row | Structure (SMILES) | pIC50
29 | Cc1ccc([C@H]2[C@H]3CCc4cc(C(=O)O)ccc4C3=NN2c2ccc(C#N)c(Cl)c2)o1 [Example 40, (3R,3aR)-2-(3-chloro-4-cyanophenyl)-3-(5-methyl-2-furyl)-3,3a,4,5-tetrahydro-2H-benzo[g]indazole-7-carboxylic acid] | 8.22
30 | N#Cc1ccc(N2N=C3c4ccc(C(=O)O)cc4CCC3C2c2ccc(F)cc2)cc1Cl (racemic) [Example 2, 2-(3-chloro-4-cyanophenyl)-3-(4-fluorophenyl)-3,3a,4,5-tetrahydro-2H-benzo[g]indazole-7-carboxylic acid] | 6.65
31 | CS(=O)(=O)CCNC(=O)c1ccc2c(c1)CC[C@H]1C2=NN(c2ccc(C#N)c(Cl)c2)[C@H]1C1CCOCC1 (racemic) [Example 100] | 7.68
